Data on 1 molecule can be found in article PMC9319741, “A Novel ERK2 Degrader Z734 Induces Apoptosis of MCF–7 Cells via the HERC3/p53 Signaling Pathway” (Molecules, 2022).

The target in one test is T1, ERK1 (Homo sapiens, UniProt P27361).
T1 construct: gene MAPK3
Description: IMAP TR-FRET enzymatic kinase (cascade) assay. In kind it is biochemical.

Another test deals with T2, ERK2 (Homo sapiens, UniProt P28482).
T2 construct: gene MAPK1
Description: IMAP TR-FRET enzymatic kinase (cascade) assay. In kind it is biochemical.

Molecules are shown by their SMILES.

T2 sequence (P28482 2-360): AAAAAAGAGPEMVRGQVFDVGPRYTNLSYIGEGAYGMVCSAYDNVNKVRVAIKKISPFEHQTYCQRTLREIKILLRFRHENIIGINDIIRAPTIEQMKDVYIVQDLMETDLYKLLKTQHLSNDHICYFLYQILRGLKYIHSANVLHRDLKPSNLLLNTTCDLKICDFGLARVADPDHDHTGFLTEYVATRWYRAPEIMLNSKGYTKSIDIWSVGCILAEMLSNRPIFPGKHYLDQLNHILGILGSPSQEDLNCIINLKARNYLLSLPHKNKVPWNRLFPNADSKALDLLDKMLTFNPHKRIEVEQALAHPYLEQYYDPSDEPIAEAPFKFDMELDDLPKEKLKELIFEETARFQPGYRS
T1 sequence (P27361 2-379): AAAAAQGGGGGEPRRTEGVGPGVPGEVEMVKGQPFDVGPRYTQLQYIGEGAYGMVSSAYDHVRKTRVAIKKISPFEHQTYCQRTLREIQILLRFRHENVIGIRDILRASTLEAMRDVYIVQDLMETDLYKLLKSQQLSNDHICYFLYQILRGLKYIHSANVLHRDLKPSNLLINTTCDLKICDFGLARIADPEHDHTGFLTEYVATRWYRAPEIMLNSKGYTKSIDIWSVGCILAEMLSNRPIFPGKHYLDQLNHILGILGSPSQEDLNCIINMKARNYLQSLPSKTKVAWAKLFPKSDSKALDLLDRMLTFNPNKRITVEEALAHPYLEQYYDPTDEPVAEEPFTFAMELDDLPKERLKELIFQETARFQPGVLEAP

Consider `CC(=O)NC(CC(=O)N(c1ccccc1)c1nc2ccccc2s1)c1ccccc1` (centres unmarked) [Z734], for which the figures for the IC50 against ERK1 and against ERK2 were 9 nM and 3 nM, respectively.

The term IC50 denotes the midpoint of a concentration-inhibition curve. Read a low IC50 as higher potency.
